In patent publication US20220073941A1, “HERBICIDE-RESISTANT CAMELINA SATIVA PLANTS, AND VARIANT CAMELINA ACETOHYDROXYACID SYNTHASE POLYPEPTIDES” (priority 2019, published 2022):

Assays:
Format in all cases: in vivo, Camelina sativa
[1] = system: susceptible controls SRS 934, 10CS0048; test: Phenotype scoring (resistant/susceptible) 7 d after 2.5 g ai/ha thifensulfuron-methyl (Example 5); conditions: 7 d after application
Text: (§1) At a thifensulfuron-methyl application rate of 2.5 g ai/ha, plants from parental, F2, BC1F1, and BC4F2 populations could easily be scored into one of two discrete phenotypic classes (R, resistant or S, susceptible) 7 d after herbicide application.

[2] = system: resistant lines 12CS0365, 12CS0366, 13CS0786; test: as above
Text: as §1

12CS0365 = test: Greenhouse dose-response to thifensulfuron-methyl, plant height and dry biomass (Example 6)
12CS0366 = test: as above

COC(=O)c1sccc1S(=O)(=O)NC(=O)Nc1nc(C)nc(OC)n1 [thifensulfuron-methyl]
phenotype after herbicide application [1]: either killed or greatly damaged
phenotype after herbicide application [2]: consistently produced a resistant phenotype
Ratio of ED50 biomass values, estimate (12CS0365; 12CS0365/12CS0366): 0.08
Ratio of ED50 height values, estimate (12CS0365; 12CS0365/12CS0366): 0.35
Ratio of ED50 biomass values, estimate (12CS0365; 12CS0365/13CS0786): 0.008
Ratio of ED50 height values, estimate (12CS0365; 12CS0365/13CS0786): 0.02
Ratio of ED50 biomass values, estimate (12CS0365; 12CS0365/SRS 934): 7.93
Ratio of ED50 height values, estimate (12CS0365; 12CS0365/SRS 934): 12.72
Ratio of ED50 biomass values, estimate (12CS0366; 12CS0366/13CS0786): 0.0968
Ratio of ED50 height values, estimate (12CS0366; 12CS0366/13CS0786): 0.20
Ratio of ED50 biomass values, estimate (12CS0366; 12CS0366/SRS 934): 99.70
Ratio of ED50 height values, estimate (12CS0366; 12CS0366/SRS 934): 36.9
